target: T1, CCR2 (Homo sapiens, UniProt P41597); experiment: MCP-1 Receptor Binding Assay in THP-1 Cells; conditions: THP-1 cells, 0.5 nM 125I labeled MCP-1, 2 hours at 30° C.; read-out: Inhibition of MCP-1 Binding IC50
T1 construct: host or cells: THP-1 cells
T1 sequence (P41597 1-360 isoform P41597-2): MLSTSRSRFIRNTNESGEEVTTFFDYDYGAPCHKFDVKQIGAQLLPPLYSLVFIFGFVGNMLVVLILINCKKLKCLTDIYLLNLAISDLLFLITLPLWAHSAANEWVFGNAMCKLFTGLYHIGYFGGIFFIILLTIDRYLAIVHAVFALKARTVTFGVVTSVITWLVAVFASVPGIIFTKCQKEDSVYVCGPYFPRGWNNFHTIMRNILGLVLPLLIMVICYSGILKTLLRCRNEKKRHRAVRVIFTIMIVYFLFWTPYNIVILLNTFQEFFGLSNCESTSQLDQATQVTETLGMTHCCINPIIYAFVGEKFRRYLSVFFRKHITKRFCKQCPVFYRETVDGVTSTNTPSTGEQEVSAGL
Description: THP-1 cells were obtained from American Type Culture Collection (Manassas, Va., USA). The THP-1 cells were grown in RPMI-1640 supplemented with 10% fetal bovine serum in a humidified 5% CO2 atmosphere at 37° C. The cell density was maintained […].
THP-1 cells were incubated with 0.5 nM ^125, labeled MCP-1 (Perkin-Elmer Life Sciences, Inc. Boston, Mass.) in the presence of varying concentrations of either unlabeled MCP-1 (R & D Systems, Minneapolis, Minn.) or test compound for 2 hours at 30° C. in a 96 well plate. Cells were then harvested onto a filter plate, dried, and 20 μL of Microscint 20 was added to each well. Plates were counted in a TopCount NXT, Microplate Scintillation & Luminescence Counter (Perkin-Elmer Life Sciences, Inc. Boston, Mass.). Blank values (buffer only) were subtracted from all values and drug treated values were compared to vehicle treated values. 1 μM cold MCP-1 was used for nonspecific binding.
Table 1 lists IC50 values for inhibition of MCP-1 binding to CCR2 obtained for test compounds of the invention.

Compound | IC50
COc1ccc(C2CCN(CC(O)C3CCN(C(=S)Nc4cccc(C#N)c4)CC3)CC2)cc1 (stereo not drawn) [Compound 104, 4-{1-hydroxy-2-[4-(4-methoxy-phenyl)-piperidin-1-yl]-ethyl}-piperidine-1-carbothioic acid (3-cyano-phenyl)-amide] | 2.7 µM
COc1ccc(C2CCN(CC(O)C3CCN(C(=S)Nc4cc(F)cc(F)c4F)CC3)CC2)cc1 (stereo not drawn) [Compound 109, 4-{1-hydroxy-2-[4-(4-methoxy-phenyl)-piperidin-1-yl]-ethyl}-piperidine-1-carbothioic acid (2,3,5-trifluoro-phenyl)-amide] | 4.2 µM
COc1ccc(C2CCN(CC(O)C3CCN(C(=S)Nc4cc(OC)cc(OC)c4)CC3)CC2)cc1 (stereo not drawn) [Compound 111, 4-{1-hydroxy-2-[4-(4-methoxy-phenyl)-piperidin-1-yl]-ethyl}-piperidine-1-carbothioic acid (3,5-dimethoxy-phenyl)-amide] | 2.6 µM
O=C(OCc1ccccc1)N1CCC(O)(C(O)CN2CCC(c3ccc(Cl)cc3)CC2)CC1 (stereo not drawn) [Compound 112, 4-{2-[4-(4-chloro-phenyl)-piperidin-1-yl]-1-hydroxy-ethyl}-4-hydroxy-piperidine-1-carboxylic acid benzyl ester] | 3.7 µM
O=C(Nc1cc(F)cc(F)c1)N1CCC(O)(C(O)CN2CCC(c3ccc(F)cc3)CC2)CC1 (stereo not drawn) [Compound 133, 4-{2-[4-(4-fluoro-phenyl)-piperidin-1-yl]-1-hydroxy-ethyl}-4-hydroxy-piperidine-1-carboxylic acid (3,5-difluoro-phenyl)-amide] | 3 µM
COc1ccc(/C=C/C(=O)N2CCC(O)(C(O)CN3CCC(c4ccc(C(F)(F)F)cc4)CC3)CC2)cc1OC (stereo not drawn) [Compound 140] | 15.4 µM
O=C(Nc1ccc(F)c(F)c1)N1CCC(O)(C(O)CN2CCC(c3ccc(C(F)(F)F)cc3)CC2)CC1 (stereo not drawn) [Compound 141, 4-hydroxy-4-{1-hydroxy-2-[4-(4-trifluoromethyl-phenyl)-piperidin-1-yl]-ethyl}-piperidine-1-carboxylic acid (3,4-difluoro-phenyl)-amide] | 2.8 µM
O=C(Nc1ccc(Cl)c(Cl)c1)N1CCC(O)(C(O)CN2CCC(c3ccc(C(F)(F)F)cc3)CC2)CC1 (stereo not drawn) [Compound 143, 4-hydroxy-4-{1-hydroxy-2-[4-(4-trifluoromethyl-phenyl)-piperidin-1-yl]-ethyl}-piperidine-1-carboxylic acid (3,4-dichloro-phenyl)-amide] | 1 µM
OC(CN1CCC(c2ccc(C(F)(F)F)cc2)CC1)C1(O)CCN(C(=S)Nc2ccc(Cl)c(Cl)c2)CC1 (stereo not drawn) [Compound 144, 4-hydroxy-4-{1-hydroxy-2-[4-(4-trifluoromethyl-phenyl)-piperidin-1-yl]-ethyl}-piperidine-1-carbothioic acid (3,4-dichloro-phenyl)-amide] | 3.4 µM
OC(CN1CCC(c2ccc(C(F)(F)F)cc2)CC1)C1(O)CCN(C(=S)Nc2cc(Cl)cc(Cl)c2)CC1 (stereo not drawn) [Compound 145, 4-hydroxy-4-{1-hydroxy-2-[4-(4-trifluoromethyl-phenyl)-piperidin-1-yl]-ethyl}-piperidine-1-carbothioic acid (3,5-dichloro-phenyl)-amide] | 1.9 µM
Nc1ccc2[nH]cc(C3CCN(CC(O)C4CCN(C(=O)OCc5ccccc5)CC4)CC3)c2c1 (stereo not drawn) [Compound 147, 4-{2-[4-(5-amino-1H-indol-3-yl)-piperidin-1-yl]-1-hydroxy-ethyl}-piperidine-1-carboxylic acid benzyl ester] | 3 µM
O=C(/C=C/c1cc(F)c(F)c(F)c1)N1CCC(O)(C(O)CN2CCC(c3c[nH]c4ccc(N5CCOCC5)cc34)CC2)CC1 (stereo not drawn) [Compound 148] | 1.1 µM
O=C(/C=C/c1cc(F)cc(F)c1)N1CCC(O)(C(O)CN2CCC(c3c[nH]c4ccc(N5CCOCC5)cc34)CC2)CC1 (stereo not drawn) [Compound 149] | 1.3 µM
O=C(/C=C/c1cc(C(F)(F)F)cc(C(F)(F)F)c1)N1CCC(O)(C(O)CN2CCC(c3c[nH]c4ccc(N5CCOCC5)cc34)CC2)CC1 (stereo not drawn) [Compound 150] | 8.7 µM
O=C(/C=C/c1cc(F)cc(F)c1)N1CCC(O)(C(O)CN2CCC(O)(c3ccc(F)cc3)CC2)CC1 (stereo not drawn) [Compound 154] | 1.8 µM
O=C(Nc1cc(F)ccc1Cl)N1CCC(O)(C(O)CN2CCC(c3c[nH]c4ccc(F)cc34)CC2)CC1 (stereo not drawn) [Compound 161] | 8.3 µM
OC(CN1CCC(c2c[nH]c3ccc(F)cc23)CC1)C1(O)CCN(C(=S)Nc2ccc(Cl)c(Cl)c2)CC1 (stereo not drawn) [Compound 162] | 8.1 µM
OC(CN1CCC(c2ccc(Cl)cc2)CC1)C1(O)CCN(C(=S)Nc2cc(F)cc(F)c2F)CC1 (stereo not drawn) [Compound 166, 4-{2-[4-(4-chloro-phenyl)-piperidin-1-yl]-1-hydroxy-ethyl}-4-hydroxy-piperidine-1-carbothioic acid (2,3,5-trifluoro-phenyl)-amide] | 3.1 µM
O=C(CCc1ccc(Cl)c(Cl)c1)N1CCC(O)(C(O)CN2CCC(c3c[nH]c4ccc(F)cc34)CC2)CC1 (stereo not drawn) [Compound 168, 3-(3,4-dichloro-phenyl)-1-(4-{2-[4-(5-fluoro-1H-indol-3-yl)-piperidin-1-yl]-1-hydroxy-ethyl}-4-hydroxy-piperidin-1-yl)-propan-1-one] | 2.7 µM
O=C(Nc1ccc(F)c(F)c1)N1CCC(O)(C(O)CN2CCC(c3c[nH]c4ccc(N5CCOCC5)cc34)CC2)CC1 (stereo not drawn) [Compound 179, 4-hydroxy-4-{1-hydroxy-2-[4-(5-morpholin-4 yl-1H-indol-3-yl)-piperidin-1-yl]-ethyl}-piperidine-1-carboxylic acid (3,4-difluoro-phenyl)-amide] | 5.8 µM
O=C(Nc1cc(F)cc(C(F)(F)F)c1)N1CCC(O)(C(O)CN2CCC(c3c[nH]c4ccc(N5CCOCC5)cc34)CC2)CC1 (stereo not drawn) [Compound 180, 4-hydroxy-4-{1-hydroxy-2-[4-(5-morpholin-4-yl-1H-indol-3-yl)-piperidin-1-yl]-ethyl}-piperidine-1-carboxylic acid (3-fluoro-5-trifluoromethyl-phenyl)-amide] | 4.2 µM

same assay, conditions: test concentration of 25 μM; given where an IC50 value was not obtained; read-out: Inhibition of MCP-1 Binding, percent inhibition

Compound | inhibition at 25 µM
COc1ccc(C2CCN(CC(O)C3CCN(C(=O)Nc4ccc5c(c4)OCO5)CC3)CC2)cc1 (stereo not drawn) [Compound 100, 4-{1-hydroxy-2-[4-(4-methoxy-phenyl)-piperidin-1-yl]-ethyl}-piperidine-1-carboxylic acid benzo[1,3]dioxol-5-ylamide] | 50%
COc1ccc(C2CCN(CC(O)C3CCN(C(=O)Nc4ccc(C(F)(F)F)cc4Cl)CC3)CC2)cc1 (stereo not drawn) [Compound 101, 4-{1-hydroxy-2-[4-(4-methoxy-phenyl)-piperidin-1-yl]-ethyl}-piperidine-1-carboxylic acid (2-chloro-4-trifluoromethyl-phenyl)-amide] | 51%
COc1ccc(C2CCN(CC(O)C3(O)CCN(C(=S)Nc4cc(OC)cc(OC)c4)CC3)CC2)cc1 (stereo not drawn) [Compound 119, 4-hydroxy-4-{1-hydroxy-2-[4-(4-methoxy-phenyl)-piperidin-1-yl]-ethyl}-piperidine-1-carbothioic acid (3,5-dimethoxy-phenyl)-amide] | 43%
OC(CN1CCC(c2c[nH]c3ccc(N4CCOCC4)cc23)CC1)C1(O)CCN(c2nccc(C(F)(F)F)n2)CC1 (stereo not drawn) [Compound 122, 4-{1-hydroxy-2-[4-(5-morpholin-4-yl-1H-indol-3-yl)-piperidin-1-yl]-ethyl}-1-(4-trifluoromethyl-pyrimidin-2-yl)-piperidin-4-ol] | 51%
O=C(OCc1ccccc1)N1CCC(O)(C(O)CN2CCC(c3ccc(F)cc3)CC2)CC1 (stereo not drawn) [Compound 125, 4-{2-[4-(4-fluoro-phenyl)-piperidin-1-yl]-1-hydroxy-ethyl}-4-hydroxy-piperidine-1-carboxylic acid benzyl ester] | 51%
O=C(OCc1ccccc1)N1CCC(O)(C(O)CN2CCC(c3ccc(C(F)(F)F)cc3)CC2)CC1 (stereo not drawn) [Compound 126, 4-hydroxy-4-{1-hydroxy-2-[4-(4-trifluoromethyl-phenyl)-piperidin-1-yl]-ethyl}-piperidine-1-carboxylic acid benzyl ester] | 55%
COc1ccc(C2CCN(CC(O)C3CCN(c4ccc([N+](=O)[O-])cn4)CC3)CC2)cc1 (stereo not drawn) [Compound 127, 2-[4-(4-methoxy-phenyl)-piperidin-1-yl]-1-(5′-nitro-3,4,5,6-tetrahydro-2H-[1,2′]bipyridinyl-4-yl)-ethanol] | 59%
CC(C)(C)OC(=O)N1CCC(O)(C(O)CN2CCC(c3ccc(Cl)cc3)CC2)CC1 (stereo not drawn) [Compound 146, 4-{2-[4-(4-chloro-phenyl)-piperidin-1-yl]-1-hydroxy-ethyl}-4-hydroxy-piperidine-1-carboxylic acid tert-butyl ester] | 41%
O=C(Cc1cccc([N+](=O)[O-])c1)N1CCC(O)(C(O)CN2CCC(c3c[nH]c4ccc(N5CCOCC5)cc34)CC2)CC1 (stereo not drawn) [Compound 176, 1-(4-hydroxy-4-{1-hydroxy-2-[4-(5-morpholin-4-yl-1H-indol-3-yl)-piperidin-1-yl]-ethyl}-piperidin-1-yl)-2-(3-nitro-phenyl)-ethanone] | 42%

Reference: patent US20070197590A1, “SUBSTITUTED DIPIPERIDINE CCR2 ANTAGONISTS” (priority 2006, published 2007)
